One assay concerns the target LdMetRS (Leishmania donovani, UniProt A0A3Q8IBX2). As to the kind of experiment: LdMetRS biochemical enzyme assay (BIOMOL Green). The note with it: read-out: LdMetRS IC50. How it is done:
LdMetRS Assay Development and Kinetic Parameter Determinations
Activity of the LdMetRS enzyme was determined by monitoring levels of pyrophosphate released during the first step of the enzymatic reaction. The pyrophosphate formed was converted to two inorganic phosphate molecules using a pyrophosphatase enzyme and levels of the resulting phosphate molecules measured using the BIOMOL® Green reagent (Enzo Life Sciences) 2.
Following optimization of the assay buffer and determination of the enzyme linearity, 384-well plate based assays were carried out at room temperature in a 50 μl reaction volume containing 30 mM Tris, pH 8.0, 140 mM NaCl, 30 mM KCl, 40 mM MgCl2, 0.01% (v/v) Brij-35, 1 mM DTT, 1 U/ml pyrophosphatase, 50 nM recombinant LdMetRS, and varying concentrations of substrates. Michaelis constants for the ATP and methionine substrates were determined in an end point assay using the above buffer and enzyme conditions. Data were fitted to the modified Michaelis-Menten equations […]
Equation 1 (Hill equation): […]
Equation 2 (High substrate inhibition Michaelis-Menten equation): […]
LdMetRS Inhibitor Studies
All test compounds were solubilized in 100% DMSO to a concentration of 10 mM. To generate IC50 data for the compounds, assay ready plates containing 10-point inhibitor curves (half-log serial dilutions) were prepared using an Echo® 550 (Labcyte).
Following preparation of the inhibitor curves, assays were carried out at room temperature in clear, flat bottom, polystyrene, 384-well plates (Greiner). Each assay was performed in a 50 μl reaction volume containing 30 mM Tris; pH 8.0, 140 mM NaCl, 30 mM KCl, 40 mM MgCl2, 0.01% (v/v) Brij-35, 1 mM DTT, 1 U/ml pyrophosphatase, 50 nM recombinant LdMetRS, 50 µM methionine and 100 µM […]
Assays were performed by adding 25 μl buffer with enzyme to assay plates (with buffer only added to ‘no enzyme’ control wells) before the reaction was initiated with the addition of a 25 μl mix containing methionine, ATP and pyrophosphatase to all wells. Following a 120 min reaction at room temperature the assay was stopped with the addition of 50 μl BIOMOL® Green. The BIOMOL® Green signal was allowed to develop for 30 min before the absorbance of each well was read at 650 nm using an EnVision multilabel plate reader (PerkinElmer Life Sciences). All liquid dispensing steps were carried out using a Thermo Scientific WellMate dispenser (Matrix).
ActivityBase from IDBS (version 8.0.5.4) was used for data processing and analysis. All IC50 curve fitting was undertaken using ActivityBase XE (version 7.7.1) from IDBS. A four-parameter logistic dose-response curve was utilized with prefit used for all four parameters.
For DDD806905 Kiapp determinations, data fitting to the Morrison equation (equation 3) was carried out using GraFit v6.0 (Erithacus Software). It should be noted that data for fitting to the Morrison equation was normalised to a ‘100 µM DDD806905’ control rather than a ‘no enzyme’ control as […]
Equation 3 (Morrison equation): […]
vi = K1 −−([ ] [ ]ET+IT+Ki)−([ ] [ ]ET+IT+i)[ ] [ ]TIE4T
LdMetRS Mode of Inhibition Studies
To establish the mode of inhibition of DDD806905, data sets (generated using the BIOMOL® Green assay platform previously described) were collected by varying both the inhibitor and substrate concentrations. Using GraFit v6.0 (Erithacus Software) each data set was individually fitted to the Michaelis-Menten equation or the modified high substrate inhibition Michaelis-Menten equation described above (equation 2), and the resulting Lineweaver-Burk plots were examined for diagnostic […]
Data sets were then globally fitted to the appropriate model (with equations 4 and 5 used for […]
If more than one model appeared possible, then data were fitted to both and examined for significance using the F-test function in GraFit.

For assay [1], the system named is L. donovani axenic amastigotes. In words: Leishmania axenic amastigote viability assay. The format is cell-based, Leishmania donovani. The note with it: read-out: Leishmania Axenic Amastigote EC50. How it is done: (§1) carried out as described above using 5%, 10% and 20% FBS in the media. To examine the effect of the methionine concentration on the potency of DDD806905 parasites were grown in the presence of drug and in the presence (or absence) of 20-fold excess methionine (0.3 g/l). IC50 curve fitting was undertaken in GraFit version 6.0 (Erithacus Software) using a four-parameter logistic dose-response curve (equation 6), with s the slope.
(§2) Leishmania Axenic Amastigote Assay
(§3) The Leishmania axenic amastigote assay was performed using the method published in Nühs et al 15.
(§4) Leishmania Intracellular Amastigote Assay
(§5) The intramacrophage Leishmania assay was performed using a modified version of the method described in De Rycker et al 16. […]
amphotericin B was included. Controls were as follows: columns 11 and 12: DMSO, columns 23 and 24: amphotericin B (final concentration 2 µM). 350 nl of compound was pre-dispensed into 384-well sterile intermediary plates. To the intermediary plates, 35 µl of THP-1 media was added and plates were shaken for >5 min to ensure complete mixing. THP-1 cells (8,000 per well, 50 µl) were plated into black clear-bottom 384-well plates (Corning) in presence of 20 nM phorbol 12-myristate 13- […]
in a humidified incubator for 75 h. The cells were then washed with 450 µl sterile phosphate buffered saline (PBS) supplemented with 1 mM CaCl2, 0.5 mM MgCl2, 0.1% (w/v) bovine serum albumin (PBS-A) and amastigotes were added to all wells at a multiplicity of infection of 5 (40,000 amastigotes per well). After 40 min at room temperature, plates were returned to the incubator.
Amastigotes were incubated in the presence of THP-1 macrophages for 16 h. Any remaining extracellular amastigotes were subsequently removed by washing with PBS-A followed by addition of 25 µl of the compound pre-dilutions using an Ipette-pro pipetting station (FluidX). The final dilution of each compound was 200-fold. Plates were incubated for 96 h and then washed (250 µl PBS-A) and fixed (4 % (v/v) formaldehyde-PBS, 30 min, room temperature). After fixation, the wells were washed with 250 µl PBS, stained (10 µg/ml DAPI, 0.4 µg/mL HCS Cellmask Deep Red in PBS + 0.1% (v/v) Triton X-100, 30 min, room temperature) and washed with 250 µl PBS. Finally, PBS + 0.05% (v/v) thimerosal was added to the wells, the plates were sealed and imaged on a high-content microscope (GE IN Cell 2000) using a 10x objective. Image analysis was carried out with GE IN Cell Analyzer 1000 Workstation using the “Multi Target Analysis” module. For each well, i) THP-1 cell count (cytotoxicity readout) and ii) average number of amastigotes per cell (potency readout) were […]

Assay [2] relates to L. donovani promastigotes. As to the kind of experiment: Leishmania promastigote viability assay. The note with it: Supplementary Table 1; read-out: Leishmania Promastigote EC50. The format is cell-based, Leishmania donovani. As to the method: After suitable sample preparation, the
In vivo Leishmaniasis Animal Model […]
administered twice daily over the same interval.
Parasite load is expressed in Leishman-
Knock-out and overexpressor generation
Leishmania Promastigote Assay
Serum shift experiments were […]
as §1, §2, §3, §4, §5
amphotericin B was included. Controls were as follows: columns 11 and 12: DMSO, columns 23 and 24: amphotericin B (final concentration 2 µM). 350 nl of compound was pre-dispensed into 384-well sterile intermediary plates. To the intermediary plates, 35 µl of THP-1 media was added and plates were shaken for >5 min to ensure complete mixing. THP-1 cells (8,000 per well, 50 µl) were plated into black clear-bottom 384-well plates (Corning) in presence of 20 nM phorbol 12-myristate 13-

Molecules are shown by their SMILES. pEC50, pIC50: −log10 of the molar value. Where two headings read alike, the source gives them in different places.

Chain of LdMetRS (A0A3Q8IBX2 entry or part of it): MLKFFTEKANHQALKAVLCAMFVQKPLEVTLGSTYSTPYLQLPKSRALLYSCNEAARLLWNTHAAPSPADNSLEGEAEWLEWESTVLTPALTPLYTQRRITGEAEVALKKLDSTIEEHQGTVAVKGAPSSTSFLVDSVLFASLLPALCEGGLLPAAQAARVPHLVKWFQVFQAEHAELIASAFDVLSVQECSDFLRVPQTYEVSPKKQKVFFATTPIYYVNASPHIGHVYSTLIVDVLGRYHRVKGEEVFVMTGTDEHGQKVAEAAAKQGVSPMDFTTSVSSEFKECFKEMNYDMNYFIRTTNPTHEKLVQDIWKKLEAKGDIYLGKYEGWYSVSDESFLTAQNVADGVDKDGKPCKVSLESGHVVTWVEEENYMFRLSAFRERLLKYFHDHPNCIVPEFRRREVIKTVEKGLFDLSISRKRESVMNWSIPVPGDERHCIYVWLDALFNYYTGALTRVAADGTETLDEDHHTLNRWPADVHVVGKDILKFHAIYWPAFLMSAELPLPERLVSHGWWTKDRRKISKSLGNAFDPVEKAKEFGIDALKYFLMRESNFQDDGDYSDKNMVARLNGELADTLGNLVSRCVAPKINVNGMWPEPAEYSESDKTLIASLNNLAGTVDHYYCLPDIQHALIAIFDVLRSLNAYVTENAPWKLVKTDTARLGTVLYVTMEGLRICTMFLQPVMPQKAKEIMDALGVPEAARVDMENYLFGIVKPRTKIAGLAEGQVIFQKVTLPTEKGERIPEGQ

Take `Clc1ccc(Cl)c2[nH]c(CNCCCNc3nc4ccccc4[nH]3)cc12` [Compound 3]: at LdMetRS (Supplementary Table 1), the pIC50 was 4.16. Besides, the results for the pEC50 in assay [1] (Supplementary Table 1) and in assay [2] were under 4.30 and 5.15, respectively.
For `Cc1c(CNCCCNc2nc3ccccc3[nH]2)[nH]c2cc(Cl)cc(Cl)c12` [Compound 4] the same measures were 5.55, 4.42 and 5.89.
For the compound `FC(F)(F)c1cc(C(F)(F)F)c2cc(CNCCCNc3nc4ccccc4[nH]3)[nH]c2c1` [Compound 5], the pIC50 on LdMetRS (Supplementary Table 1) is 4.34. Also, the pEC50 in assay [1] (Supplementary Table 1) is 4.54; in assay [2] it was 5.21.
In the same order, the values of `COc1cccc2[nH]c(NCCCNCc3cc(Br)cc(Br)c3)nc12` [Compound 7] are 4.10, under 4.30 and 4.72.
For `OCc1c(Cl)cc(Cl)cc1CNCCCNc1nc2ccccc2[nH]1` [Compound 8] the same measures were 4.33, under 4.30 and 4.48.
Turning to `COc1cc(C(F)(F)F)cc2[nH]c(CNCCCNc3nc4ccccc4[nH]3)cc12` [Compound 9], the pIC50 on LdMetRS (Supplementary Table 1) is under 4.00. The pEC50 in assay [1] (Supplementary Table 1) is under 4.30; in assay [2], 5.11.
As for `COc1cc(C(F)(F)F)c2cc(CNCCCNc3nc4ccccc4[nH]3)[nH]c2c1` [Compound 10], the pIC50 on LdMetRS (Supplementary Table 1) was 5.32. Further, the values for the pEC50 in assay [1] (Supplementary Table 1) and in assay [2] were under 4.30 and 5.19, respectively.
In the same order, the values of `Brc1cc(Br)c2c(c1)C(NCCCNc1nc3ncccc3[nH]1)CCN2` (stereo not drawn) [Compound 11] are 6.77, 5.21 and 6.27.
In the same order, the values of `Cc1cc(C)c2cc(CNCCCNc3nc4ccccc4[nH]3)[nH]c2c1` [Compound 12] are 5.25, under 4.30 and 5.02.
In the same order, the values of `CCOc1c(CNCCCNc2nc3ccccc3[nH]2)cc(Br)cc1OC` [Compound 13] are 4.43, under 4.30 and 4.72.
With `CCOc1c(Br)cc(C)cc1CNCCCNc1nc2ccccc2[nH]1` [Compound 14], the pIC50 on LdMetRS (Supplementary Table 1) is 4.92. Also, the pEC50 was under 4.30 in assay [1] (Supplementary Table 1) and 5.12 in assay [2].
For `CCOc1c(Cl)cc(Cl)cc1CNCCCNc1nc2ccccc2[nH]1` [Compound 15] the same measures were 5.27, under 4.30 and 5.39.
In the same order, the values of `CCOc1c(Br)cc(Cl)cc1CNCCCNc1nc2ccccc2[nH]1` [Compound 16] are 5.23, under 4.30 and 5.31.
In the same order, the values of `OCCn1c(CNCCCNc2nc3ccccc3[nH]2)cc2c(Cl)cc(Cl)cc21` [Compound 17] are 6.42, 4.72 and 6.06.
Consider `O=C(NCCCNc1nc(=O)c2ccccc2[nH]1)c1cc2c(Cl)cc(Cl)cc2[nH]1` [Compound 25], for which the pIC50 on LdMetRS (Table 1) is 5.48. Besides, the pEC50 in assay [1] (Leishmania donovani, Table 1) is under 4.30.
Consider `O=c1nc(NCCCNCc2cc(Cl)cc(Cl)c2)[nH]c2ccccc12` [Compound 26], for which the pIC50 on LdMetRS (Table 1) is 6.13. Besides, the pEC50 in assay [1] (Leishmania donovani, Table 1) was 4.42.
For `O=C(CCNc1nc(=O)c2ccccc2[nH]1)NCc1cc(Cl)cc(Cl)c1` [Compound 27] the same measures were 5.55 and 4.66.
On to `O=c1nc(NCCCCCc2cc(Cl)cc(Cl)c2)[nH]c2ccccc12` [Compound 29], for which, at LdMetRS (Table 1), the pIC50 was under 4.00. Also, the pEC50 in assay [1] (Leishmania donovani, Table 1) was under 4.30.
In the same order, the values of `CN(CCCNc1nc(=O)c2ccccc2[nH]1)Cc1cc2c(Cl)cc(Cl)cc2[nH]1` [Compound 30] are 7.52 and 4.74.
In the same order, the values of `O=c1nc(OCCCNCc2cc3c(Cl)cc(Cl)cc3[nH]2)[nH]c2ccccc12` [Compound 31] are 4.66 and under 4.30.

As a reminder, the pIC50 is the IC50 on a negative log10 scale, so that one unit is a factor of ten. In general, pEC50 refers to the EC50 on a negative log10 scale, so that one unit is a factor of ten.
